Read-outs that look alike come from different tables or passages of the source.
Tests used:
Test in all cases: selectivity profiling in a panel of 340 wild-type kinases (Reaction Biology Europe)
Assay type in all cases: binding
340 wild-type kinases [1] = biological target: T1, 340 wild-type kinases (Homo sapiens, UniProt O00141)
T1 construct: purchased Reaction Biology Europe
T1 sequence (O00141 1-431): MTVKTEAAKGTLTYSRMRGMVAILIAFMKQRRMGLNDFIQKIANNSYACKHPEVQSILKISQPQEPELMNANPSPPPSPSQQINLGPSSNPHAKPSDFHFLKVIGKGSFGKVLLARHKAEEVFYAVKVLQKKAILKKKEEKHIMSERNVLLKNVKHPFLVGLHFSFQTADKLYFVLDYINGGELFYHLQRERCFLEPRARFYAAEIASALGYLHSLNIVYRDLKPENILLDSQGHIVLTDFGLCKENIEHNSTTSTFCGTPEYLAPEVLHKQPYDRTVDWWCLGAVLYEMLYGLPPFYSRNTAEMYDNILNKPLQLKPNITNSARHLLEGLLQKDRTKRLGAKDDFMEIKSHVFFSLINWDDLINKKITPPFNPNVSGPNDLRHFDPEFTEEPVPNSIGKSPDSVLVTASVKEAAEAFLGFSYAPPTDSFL

340 wild-type kinases [2] = biological target: T2, 340 wild-type kinases (Homo sapiens, UniProt P07949)
T2 construct: purchased Reaction Biology Europe

340 wild-type kinases [3] = biological target: T3, 340 wild-type kinases (Homo sapiens, UniProt P29317)
T3 construct: purchased Reaction Biology Europe

340 wild-type kinases [4] = biological target: T4, 340 wild-type kinases (Homo sapiens, UniProt P54753)
T4 construct: purchased Reaction Biology Europe
T4 sequence (P54753 34-998): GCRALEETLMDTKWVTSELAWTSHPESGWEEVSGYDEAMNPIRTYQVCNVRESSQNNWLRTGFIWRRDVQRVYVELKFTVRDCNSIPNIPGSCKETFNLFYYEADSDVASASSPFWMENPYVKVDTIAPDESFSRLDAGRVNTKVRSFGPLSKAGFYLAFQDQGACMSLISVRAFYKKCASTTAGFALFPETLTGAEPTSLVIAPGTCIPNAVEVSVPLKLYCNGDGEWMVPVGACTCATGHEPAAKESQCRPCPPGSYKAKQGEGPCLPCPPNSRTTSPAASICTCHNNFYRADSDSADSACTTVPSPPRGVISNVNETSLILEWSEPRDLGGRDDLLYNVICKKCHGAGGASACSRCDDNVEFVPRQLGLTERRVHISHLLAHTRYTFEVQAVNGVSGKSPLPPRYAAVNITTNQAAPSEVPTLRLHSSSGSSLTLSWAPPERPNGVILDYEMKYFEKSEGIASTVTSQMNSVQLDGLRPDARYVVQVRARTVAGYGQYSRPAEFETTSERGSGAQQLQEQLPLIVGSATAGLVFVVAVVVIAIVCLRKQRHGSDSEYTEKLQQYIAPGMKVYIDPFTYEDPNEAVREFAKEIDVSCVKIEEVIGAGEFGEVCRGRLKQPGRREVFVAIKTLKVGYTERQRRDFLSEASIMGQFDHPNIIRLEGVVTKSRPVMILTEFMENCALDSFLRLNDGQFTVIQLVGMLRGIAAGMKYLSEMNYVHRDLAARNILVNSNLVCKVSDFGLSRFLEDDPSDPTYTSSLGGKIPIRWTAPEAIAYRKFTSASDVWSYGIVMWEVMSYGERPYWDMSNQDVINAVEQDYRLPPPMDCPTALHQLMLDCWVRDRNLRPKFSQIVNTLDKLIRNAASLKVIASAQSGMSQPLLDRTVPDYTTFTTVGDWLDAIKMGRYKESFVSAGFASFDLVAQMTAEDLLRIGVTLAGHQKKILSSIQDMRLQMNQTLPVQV

340 wild-type kinases [5] = biological target: T5, 340 wild-type kinases (Homo sapiens, UniProt Q5S007)
T5 construct: purchased Reaction Biology Europe

340 wild-type kinases [6] = biological target: T6, 340 wild-type kinases (Homo sapiens, UniProt Q9NR20)
T6 construct: purchased Reaction Biology Europe
T6 sequence (Q9NR20 1-520): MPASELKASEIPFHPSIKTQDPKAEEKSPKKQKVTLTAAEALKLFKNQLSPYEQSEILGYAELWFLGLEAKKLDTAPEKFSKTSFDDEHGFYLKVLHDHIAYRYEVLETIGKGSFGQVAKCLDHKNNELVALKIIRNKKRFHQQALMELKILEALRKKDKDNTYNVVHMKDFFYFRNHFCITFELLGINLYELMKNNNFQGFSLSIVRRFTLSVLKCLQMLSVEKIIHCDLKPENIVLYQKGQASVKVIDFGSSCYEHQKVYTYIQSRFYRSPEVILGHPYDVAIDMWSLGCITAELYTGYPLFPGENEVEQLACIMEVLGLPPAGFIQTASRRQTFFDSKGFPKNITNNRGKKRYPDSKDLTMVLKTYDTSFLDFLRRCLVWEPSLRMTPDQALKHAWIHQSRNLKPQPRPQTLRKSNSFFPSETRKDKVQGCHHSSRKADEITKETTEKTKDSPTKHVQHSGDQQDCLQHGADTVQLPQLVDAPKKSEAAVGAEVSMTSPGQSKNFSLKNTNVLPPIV

[7] = read-out: DYRK4 residual activity

T3 sequence (P29317 24-976): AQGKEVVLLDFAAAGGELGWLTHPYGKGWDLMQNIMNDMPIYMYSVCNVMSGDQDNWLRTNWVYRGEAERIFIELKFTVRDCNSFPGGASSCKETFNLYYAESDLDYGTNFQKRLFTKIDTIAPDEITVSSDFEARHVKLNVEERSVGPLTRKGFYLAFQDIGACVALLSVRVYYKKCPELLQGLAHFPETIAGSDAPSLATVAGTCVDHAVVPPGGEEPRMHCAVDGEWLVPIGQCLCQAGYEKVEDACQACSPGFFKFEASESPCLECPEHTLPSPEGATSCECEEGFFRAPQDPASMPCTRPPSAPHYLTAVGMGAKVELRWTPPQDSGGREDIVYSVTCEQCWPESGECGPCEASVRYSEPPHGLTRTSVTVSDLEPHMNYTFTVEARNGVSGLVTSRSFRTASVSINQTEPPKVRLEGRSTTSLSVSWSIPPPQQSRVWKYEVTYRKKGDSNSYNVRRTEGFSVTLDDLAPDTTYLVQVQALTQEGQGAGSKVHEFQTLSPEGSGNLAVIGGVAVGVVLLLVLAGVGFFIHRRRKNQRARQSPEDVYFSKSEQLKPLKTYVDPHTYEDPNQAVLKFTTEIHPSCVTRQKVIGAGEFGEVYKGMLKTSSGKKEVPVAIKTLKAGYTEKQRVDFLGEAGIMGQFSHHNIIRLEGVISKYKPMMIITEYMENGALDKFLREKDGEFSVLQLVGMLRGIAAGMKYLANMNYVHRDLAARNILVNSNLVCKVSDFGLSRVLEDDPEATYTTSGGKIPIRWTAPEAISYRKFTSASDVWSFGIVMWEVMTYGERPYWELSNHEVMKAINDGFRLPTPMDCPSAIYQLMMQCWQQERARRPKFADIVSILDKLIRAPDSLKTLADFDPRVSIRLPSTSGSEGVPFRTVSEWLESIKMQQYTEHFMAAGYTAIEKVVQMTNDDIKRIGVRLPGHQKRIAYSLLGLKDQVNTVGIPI
T2 sequence (P07949 29-1114): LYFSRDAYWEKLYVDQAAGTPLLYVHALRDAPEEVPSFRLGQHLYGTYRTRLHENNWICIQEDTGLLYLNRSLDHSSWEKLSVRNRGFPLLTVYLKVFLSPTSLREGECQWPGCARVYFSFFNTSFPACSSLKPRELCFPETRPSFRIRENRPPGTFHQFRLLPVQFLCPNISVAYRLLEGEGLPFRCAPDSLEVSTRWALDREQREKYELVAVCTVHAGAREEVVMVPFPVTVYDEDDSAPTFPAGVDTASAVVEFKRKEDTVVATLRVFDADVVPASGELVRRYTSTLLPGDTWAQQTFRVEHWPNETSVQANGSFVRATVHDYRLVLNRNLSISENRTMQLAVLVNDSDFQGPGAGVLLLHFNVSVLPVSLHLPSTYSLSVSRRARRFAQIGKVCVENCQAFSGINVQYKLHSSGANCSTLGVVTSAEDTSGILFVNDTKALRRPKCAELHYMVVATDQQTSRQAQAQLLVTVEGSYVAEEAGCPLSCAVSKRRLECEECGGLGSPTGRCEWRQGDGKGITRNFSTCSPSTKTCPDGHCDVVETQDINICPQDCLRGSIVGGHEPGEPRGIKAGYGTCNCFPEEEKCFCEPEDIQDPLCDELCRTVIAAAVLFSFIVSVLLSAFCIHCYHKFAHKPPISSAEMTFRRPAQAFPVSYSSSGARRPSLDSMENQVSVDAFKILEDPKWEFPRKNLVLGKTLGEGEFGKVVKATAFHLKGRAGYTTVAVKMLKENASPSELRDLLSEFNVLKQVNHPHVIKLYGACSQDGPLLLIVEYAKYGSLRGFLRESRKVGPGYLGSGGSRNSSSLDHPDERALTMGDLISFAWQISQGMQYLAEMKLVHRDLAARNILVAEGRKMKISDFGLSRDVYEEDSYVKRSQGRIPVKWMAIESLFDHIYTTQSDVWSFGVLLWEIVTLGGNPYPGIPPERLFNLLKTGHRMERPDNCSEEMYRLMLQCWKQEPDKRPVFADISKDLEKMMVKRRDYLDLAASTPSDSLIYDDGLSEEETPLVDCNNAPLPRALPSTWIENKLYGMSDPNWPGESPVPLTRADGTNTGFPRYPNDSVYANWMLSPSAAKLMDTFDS
T5 sequence (Q5S007 whole entry): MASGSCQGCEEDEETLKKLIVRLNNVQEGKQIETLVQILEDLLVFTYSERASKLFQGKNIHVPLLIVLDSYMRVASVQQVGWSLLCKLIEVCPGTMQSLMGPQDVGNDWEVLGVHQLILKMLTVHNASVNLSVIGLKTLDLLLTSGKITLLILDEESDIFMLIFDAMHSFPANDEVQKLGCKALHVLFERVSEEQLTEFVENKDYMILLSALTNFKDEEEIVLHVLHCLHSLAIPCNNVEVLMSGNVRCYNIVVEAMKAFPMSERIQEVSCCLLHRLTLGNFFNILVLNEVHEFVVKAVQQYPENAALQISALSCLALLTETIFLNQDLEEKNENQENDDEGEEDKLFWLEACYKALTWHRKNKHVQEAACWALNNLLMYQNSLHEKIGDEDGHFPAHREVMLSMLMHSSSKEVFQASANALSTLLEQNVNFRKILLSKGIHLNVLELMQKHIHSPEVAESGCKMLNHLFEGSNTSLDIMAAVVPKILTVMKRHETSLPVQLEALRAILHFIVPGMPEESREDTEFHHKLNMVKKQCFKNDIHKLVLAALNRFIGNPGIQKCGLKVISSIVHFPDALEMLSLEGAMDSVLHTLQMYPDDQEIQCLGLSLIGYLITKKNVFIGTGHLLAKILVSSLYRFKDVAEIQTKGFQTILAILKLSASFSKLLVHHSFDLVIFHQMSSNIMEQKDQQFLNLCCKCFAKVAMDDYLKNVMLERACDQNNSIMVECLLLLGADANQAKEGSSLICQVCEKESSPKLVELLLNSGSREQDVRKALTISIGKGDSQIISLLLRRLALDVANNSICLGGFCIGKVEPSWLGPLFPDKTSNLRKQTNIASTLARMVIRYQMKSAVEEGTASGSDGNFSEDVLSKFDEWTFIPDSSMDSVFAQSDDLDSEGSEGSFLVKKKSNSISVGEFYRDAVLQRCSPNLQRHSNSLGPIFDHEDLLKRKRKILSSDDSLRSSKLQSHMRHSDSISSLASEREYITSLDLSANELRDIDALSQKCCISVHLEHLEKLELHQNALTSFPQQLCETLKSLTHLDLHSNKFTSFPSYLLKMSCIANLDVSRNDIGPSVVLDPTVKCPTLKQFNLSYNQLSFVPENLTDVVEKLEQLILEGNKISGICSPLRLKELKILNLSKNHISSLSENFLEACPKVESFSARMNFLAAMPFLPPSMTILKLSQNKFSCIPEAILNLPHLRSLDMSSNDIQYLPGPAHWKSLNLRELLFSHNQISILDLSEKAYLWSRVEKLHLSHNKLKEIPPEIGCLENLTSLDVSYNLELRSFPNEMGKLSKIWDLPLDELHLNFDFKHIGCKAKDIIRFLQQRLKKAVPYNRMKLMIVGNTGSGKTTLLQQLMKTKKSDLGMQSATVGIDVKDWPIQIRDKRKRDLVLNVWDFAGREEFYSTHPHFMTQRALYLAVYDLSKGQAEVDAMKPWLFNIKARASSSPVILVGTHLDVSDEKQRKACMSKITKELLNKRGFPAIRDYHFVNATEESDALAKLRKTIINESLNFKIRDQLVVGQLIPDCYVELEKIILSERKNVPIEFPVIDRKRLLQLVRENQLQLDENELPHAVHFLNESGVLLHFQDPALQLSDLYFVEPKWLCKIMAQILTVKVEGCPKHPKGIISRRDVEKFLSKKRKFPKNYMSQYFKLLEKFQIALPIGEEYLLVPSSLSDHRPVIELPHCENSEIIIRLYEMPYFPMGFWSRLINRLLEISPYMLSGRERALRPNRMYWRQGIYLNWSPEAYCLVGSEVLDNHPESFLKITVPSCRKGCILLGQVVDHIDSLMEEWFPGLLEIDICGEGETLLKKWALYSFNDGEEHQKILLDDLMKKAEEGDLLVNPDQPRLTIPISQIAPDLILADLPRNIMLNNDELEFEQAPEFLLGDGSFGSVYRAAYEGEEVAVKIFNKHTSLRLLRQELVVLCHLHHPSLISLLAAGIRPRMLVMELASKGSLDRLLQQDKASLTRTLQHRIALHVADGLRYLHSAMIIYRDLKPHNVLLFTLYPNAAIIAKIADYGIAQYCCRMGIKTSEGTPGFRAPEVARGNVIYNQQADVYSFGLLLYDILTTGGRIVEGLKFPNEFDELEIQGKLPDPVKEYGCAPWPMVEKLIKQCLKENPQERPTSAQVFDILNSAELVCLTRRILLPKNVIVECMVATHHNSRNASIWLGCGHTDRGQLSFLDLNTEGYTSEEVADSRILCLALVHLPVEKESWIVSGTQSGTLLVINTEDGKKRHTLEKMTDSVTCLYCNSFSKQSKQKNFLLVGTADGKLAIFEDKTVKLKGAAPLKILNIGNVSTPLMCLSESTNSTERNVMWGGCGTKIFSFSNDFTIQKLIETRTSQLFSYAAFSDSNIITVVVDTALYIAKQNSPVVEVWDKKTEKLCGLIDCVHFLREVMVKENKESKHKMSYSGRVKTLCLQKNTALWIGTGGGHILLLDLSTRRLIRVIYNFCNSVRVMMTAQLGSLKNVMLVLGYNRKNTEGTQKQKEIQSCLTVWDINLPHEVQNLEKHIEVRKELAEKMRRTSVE

CNC(=O)c1ccc2c(c1)C(=O)c1ccc(Nc3ccc(F)c(NC(=O)C4CC4)c3)cc1CC2 [Compound 2015]
remaining activity at 0.2 µM (340 wild-type kinases [1]; 0.2 µM 2015, read-out: SGK1 residual activity): 95.9%
remaining activity at 1 µM (340 wild-type kinases [1]; 1 µM 2015, read-out: SGK1 residual activity): 91.4%
remaining activity at 0.2 µM (340 wild-type kinases [1]; SGK1, 0.2 µM, read-out: residual activity): 95.8%
remaining activity at 1 µM (340 wild-type kinases [1]; SGK1, 1 µM, read-out: residual activity): 91.4%
remaining activity at 0.2 µM (340 wild-type kinases [2]; 0.2 µM 2015, read-out: RET residual activity): 105%
remaining activity at 1 µM (340 wild-type kinases [2]; 1 µM 2015, read-out: RET residual activity): 80.3%
remaining activity at 0.2 µM (340 wild-type kinases [2]; RET, 0.2 µM, read-out: residual activity): 105%
remaining activity at 1 µM (340 wild-type kinases [2]; RET, 1 µM, read-out: residual activity): 80.3%
remaining activity at 0.2 µM (340 wild-type kinases [3]; 0.2 µM 2015, read-out: EPHA2 residual activity): 98.4%
remaining activity at 1 µM (340 wild-type kinases [3]; 1 µM 2015, read-out: EPHA2 residual activity): 102%
remaining activity at 0.2 µM (340 wild-type kinases [3]; EPHA2, 0.2 µM, read-out: residual activity): 98.4%
remaining activity at 1 µM (340 wild-type kinases [3]; EPHA2, 1 µM, read-out: residual activity): 102%
remaining activity at 0.2 µM (340 wild-type kinases [4]; 0.2 µM 2015, read-out: EPHB3 residual activity): 97.2%
remaining activity at 1 µM (340 wild-type kinases [4]; 1 µM 2015, read-out: EPHB3 residual activity): 96.8%
remaining activity at 0.2 µM (340 wild-type kinases [4]; EPHB3, 0.2 µM, read-out: residual activity): 97.2%
remaining activity at 1 µM (340 wild-type kinases [4]; EPHB3, 1 µM, read-out: residual activity): 96.8%
remaining activity at 0.2 µM (340 wild-type kinases [5]; 0.2 µM 2015, read-out: LRRK2 residual activity): 98.2%
remaining activity at 1 µM (340 wild-type kinases [5]; 1 µM 2015, read-out: LRRK2 residual activity): 93.8%
remaining activity at 0.2 µM (340 wild-type kinases [5]; LRRK2, 0.2 µM, read-out: residual activity): 98.2%
remaining activity at 1 µM (340 wild-type kinases [5]; LRRK2, 1 µM, read-out: residual activity): 93.8%
remaining activity at 0.2 µM (340 wild-type kinases [6]; [7]): 108%
remaining activity at 1 µM (340 wild-type kinases [6]; [7]): 97.1%
remaining activity at 0.2 µM (340 wild-type kinases [6]; read-out: residual activity): 108%
remaining activity at 1 µM (340 wild-type kinases [6]; read-out: residual activity): 97.1%
